Data: patent US6812380B2, “Compositions and methods of zearalenone detoxification” (Pioneer Hi-Bred International, Inc., priority 2001, dated 2004)

How the values were obtained:
[1] = biological target: T1, ZES2b translation products (Bionectria ochroleuca, UniProt Q8NKB0, A65V/H263Y/S41R/T3I); type: biochemical, Gliocladium roseum; conditions: 37° C. for 16 hours
T1 construct: made in house; host or cells: cell-free coupled transcription/translation (Roche RTS500; T7 polymerase, E. coli ribosomes) from plasmids pFMB35-34 (cDNA) and pFMB35-13 (genomic DNA)
T1 sequence (Q8NKB0 1-264 T3I/S41R/A65V/H263Y): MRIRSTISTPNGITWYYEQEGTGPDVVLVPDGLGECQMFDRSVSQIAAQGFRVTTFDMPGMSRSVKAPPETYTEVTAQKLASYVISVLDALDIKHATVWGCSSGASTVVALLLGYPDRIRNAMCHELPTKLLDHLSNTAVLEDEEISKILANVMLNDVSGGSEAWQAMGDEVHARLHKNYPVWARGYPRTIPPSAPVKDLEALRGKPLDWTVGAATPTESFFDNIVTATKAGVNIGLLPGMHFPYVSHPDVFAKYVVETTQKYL

[2] = tested on: zearalenone esterase synthesis in G. roseum; conditions: cited from earlier work
[3] = tested on: ZES1, ZES2, and ZES2b transcripts; experiment: Differential transcript profiling (Curagen Profiling) of G. roseum cultures; type: cell-based, Gliocladium roseum; conditions: G. roseum cultured with 10 μg/ml for 12 hours at 22° C.
Description: The ZES1, ZES2, and ZES2b sequences of the invention were identified by assaying for differential expression patterns in the presence of α-zearalenol and β-zearalenol, which allowed for identification of the nucleotide sequences of the invention. Specifically, G. roseum was cultured in the presence of either 10 μg/ml α-zearalenol or 10 μg/ml β-zearalenol for 12 hours at 22° C. Following culturing, Curagen Profiling technology was used to identify transcripts present in α-zearalenol-induced cultures but absent in β-zearalenol-induced cultures.

[4] = tested on: humans; conditions: in vivo; cited from earlier work
[5] = tested on: uterine tissues; conditions: mouse, in vivo; cited from earlier work
[6] = tested on: human breast cancer cells; conditions: cited from earlier work
[7] = tested on: mice; conditions: mouse, in vivo; cited from earlier work
[8] = tested on: rats; conditions: rat, in vivo; cited from earlier work
[9] = tested on: Armenian hamster; conditions: in vivo; cited from earlier work

C[C@H]1CCC[C@H](O)CCC/C=C/c2cc(O)cc(O)c2C(=O)O1 [α-zearalenol]
degradation of substrate after incubation with the translation product of pFMB35-13 [1]: completely degraded | degradation of substrate after incubation with the translation product of pFMB35-34 [1]: completely degraded | induction of synthesis of zearalenone esterase in G. roseum [2]: occurs only when zearalenone or its derivative α-zearalenol is present in the culture medium | expression of ZES1, ZES2, and ZES2b transcripts in induced cultures [3]: upregulated

C[C@H]1CCCC(=O)CCC/C=C/c2cc(O)cc(O)c2C(=O)O1 [zearalenone]
degradation of substrate after incubation with the translation product of pFMB35-13 [1]: completely degraded | degradation of substrate after incubation with the translation product of pFMB35-34 [1]: completely degraded | estrogenic effects in humans [4]: exhibits estrogenic effects | hyperestrogenic syndrome in humans [4]: causes hyperestrogenic syndrome | induction of synthesis of zearalenone esterase in G. roseum [2]: occurs only when zearalenone or its derivative α-zearalenol is present in the culture medium | modulation of uterine tissues [5]: induce modulation of uterine tissues | entry of human breast cancer cells into the cell cycle [6]: stimulates human breast cancer cells to enter the cell cycle | carcinogenicity [7]: carcinogenic | teratogenicity [8]: teratogenic | induction of hepatic carcinomas [9]: induce hepatic carcinomas

C[C@H]1CCC[C@@H](O)CCC/C=C/c2cc(O)cc(O)c2C(=O)O1 [β-zearalenol]
degradation of substrate after incubation with the translation product of pFMB35-13 [1]: completely degraded | degradation of substrate after incubation with the translation product of pFMB35-34 [1]: completely degraded | induction of synthesis of zearalenone esterase in G. roseum [2]: does not induce synthesis of zearalenone esterase
